This note sets out measurements from patent publication US7858647B2, “N-[1,3,4]-thiadiazol-2-yl-benzene sulfonamides, pharmaceutical compositions thereof and methods for their therapeutic use” (Sanofi-Aventis, priority 2005, dated 2010).

As usually defined, the EC50 is the concentration giving half of the maximal effect. A lower EC50 goes with greater potency.

The assay has as its target T1, human PPARgamma (Homo sapiens, UniProt P37231).
T1 construct: amino acids I152-Y475; expressed in transfected cells; host or cells: HEK cells (transient transfection of pcDNA3-GAL4-humanPPARgammaLBD)
T1 sequence (P37231 182-477 isoform P37231-2 limits assumed): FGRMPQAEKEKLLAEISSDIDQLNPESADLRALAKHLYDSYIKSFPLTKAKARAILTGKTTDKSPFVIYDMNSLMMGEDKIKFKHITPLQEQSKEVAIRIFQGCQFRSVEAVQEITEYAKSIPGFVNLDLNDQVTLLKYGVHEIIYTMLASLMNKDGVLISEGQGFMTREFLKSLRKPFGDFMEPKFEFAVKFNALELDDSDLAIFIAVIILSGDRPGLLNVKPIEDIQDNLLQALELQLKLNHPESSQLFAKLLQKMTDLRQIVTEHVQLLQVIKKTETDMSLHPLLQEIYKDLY
As to the kind of experiment: Cellular PPARgamma assay (luciferase reporter, transiently transfected HEK cells). It counts as cell-based. As to conditions: GAL4-humanPPARgammaLBD. The source says:
A transient transfection system is employed to determine the cellular PPARgamma activity of PPAR agonists. It is based on the use of a luciferase reporter plasmid (pGL3basic-5×GAL4-TK) and of a PPARgamma expression plasmid (pcDNA3-GAL4-humanPPARgammaLBD). Both plasmids are transiently transfected into human embryonic kidney cells (HEK cells). There is then expression in these cells of the fusion protein GAL4-humanPPARgammaLBD which binds to the GAL4 binding sites of the reporter plasmid. In the presence of a PPARgamma-active ligand, the activated fusion protein GAL4-humanPPARgammaLBD induces expression of the luciferase reporter gene, which can be detected in the form of a chemiluminescence signal after addition of a luciferase substrate. As a difference from the stably transfected PPARalpha reporter cell line, in the cellular PPARgamma assay the two components (luciferase reporter plasmid and PPARgamma expression plasmid) are transiently transfected into HEK cells because stable and permanent expression of the PPARgamma fusion protein is cytotoxic.
The luciferase reporter plasmid pGL3basic-5×GAL4-TK is based on the vector pGL3basic from Promega. The reporter plasmid is prepared by cloning five binding sites of the yeast transcription factor GAL4 (each binding site with the sequence 5′-CTCGGAGGACAGTACTCCG-3′), together with a 160 bp-long thymidine kinase promoter section (Genbank Accession #AF027128) 5′-upstream into pGL3basic. 3′-downstream of the thymidine kinase promoter is the complete luciferase gene from Photinus pyralis (Genbank Accession #M15077) which is already a constituent of the plasmid pGL3basic used. The cloning and sequencing of the reporter plasmid pGL3basic-5×GAL4-TK took place in analogy to the description in Sambrook J. et. al. (Molecular cloning, Cold Spring Harbor Laboratory Press, 1989).
The PPARgamma expression plasmid pcDNA3-GAL4-humanPPARgammaLBD was prepared by first cloning the cDNA coding for amino acids 1-147 of the yeast transcription factor GAL4 (Genbank Accession #P04386) into the plasmid pcDNA3 (from Invitrogen) 3′-downstream of the cytomegalovirus promoter. Subsequently, the cDNA of the ligand-binding domain (LBD) of the human PPARgamma receptor (amino acids I152-Y475; Accession #g1480099) 3′-downstream of the GAL4 DNA binding domain. Cloning and sequencing of the PPARgamma expression plasmid pcDNA3-GAL4-humanPPARgammaLBD again took place in analogy to the description in Sambrook J. et. al. (Molecular cloning, Cold Spring Harbor Laboratory Press, 1989). Besides the luciferase reporter plasmid pGL3basic-5×GAL4-TK and the PPARgamma expression plasmid pcDNA3-GAL4-humanPPARgammaLBD, also used for the cellular PPARgamma assay are the reference plasmid pRL-CMV (from Promega) and the plasmid pBluescript SK(+) from Stratagene. All four plasmids were prepared using a plasmid preparation kit from Qiagen, which ensured a plasmid quality with a minimal endotoxin content, before transfection into HEK cells.
The activity of PPARgamma agonists is determined in a 4-day assay which is described below. Before the transfection, HEK cells are cultivated in DMEM (#41965-039, Invitrogen) which is mixed with the following additions: 10% FCS (#16000-044, Invitrogen), 1% penicillin-streptomycin solution (#15140-122, Invitrogen) and 2 mM L-glutamine (#25030-024, Invitrogen).
Firstly, solution A, a transfection mixture which contains all four plasmids previously described in addition to DMEM, is prepared. The following amounts are used to make up 3 ml of solution A for each 96 well microtiter plate for an assay: 2622 μl of antibiotic- and serum-free DMEM (#41965-039, Invitrogen), 100 μl of reference plasmid pRL-CMV (1 ng/μl), 100 μl of luciferase reporter plasmid pGL3basic-5×GAL4-TK (10 ng/μl), 100 μl of PPARgamma expression plasmid pcDNA3-GAL4-humanPPARgammaLBD (100 ng/μl) and 78 μl of plasmid pBluescript SK(+) (500 ng/μl). […]
As for `COc1ccc(C(=O)NCCc2ccc(S(=O)(=O)Nc3nnc(C(C)C)s3)cc2)c(OC)n1` [Example 5, N-{2-[4-(5-Isopropyl-[1,3,4]thiadiazol-2-ylsulfamoyl)-phenyl]-ethyl}-2,6-dimethoxy-nicotinamide], the midpoint of the response, the EC50, lay at 1110 nM. `CC(C)c1nnc(NS(=O)(=O)c2ccc(CNC(=O)c3ccc(C(F)(F)F)cc3)cc2)s1` [Example 24, N-[4-(5-Isopropyl-[1,3,4]thiadiazol-2-ylsulfamoyl)-benzyl]-4-trifluoromethyl-benzamide] showed an EC50 of 1530 nM. This EC50 and that of the molecule before are within 1.5-fold of each other.

As to `COc1ccc(C(C)(C)C)cc1C(=O)NCCc1ccc(S(=O)(=O)Nc2nnc(C(C)C)s2)cc1` [Example 2, 5-tert-Butyl-N-{2-[4-(5-isopropyl-[1,3,4]thiadiazol-2-ylsulfamoyl)-phenyl]-ethyl}-2-methoxy-benzamide], the response was half-maximal at 180 nM (EC50). Next, `Cc1ccc(Cl)cc1C(=O)NCCc1ccc(S(=O)(=O)Nc2nnc(-c3ccccc3)s2)cc1` [Example 32, 5-Chloro-2-methyl-N-{2-[4-(5-phenyl-[1,3,4]thiadiazol-2-ylsulfamoyl)-phenyl]-ethyl}-benzamide]: 4870 nM; `CCOc1cc(C(F)(F)F)ccc1C(=O)NCC(C)c1ccc(S(=O)(=O)Nc2nnc(C(C)C)s2)cc1` (single isomer, unassigned) [Example 43b]: 70 nM; `CCOc1cc(C(F)(F)F)ccc1C(=O)NCC(C)c1ccc(S(=O)(=O)Nc2nnc(C(C)C)s2)cc1` (single isomer, unassigned) [Example 43a]: 70 nM.

The molecule `CCOc1cc(C(F)(F)F)ccc1C(=O)NCC(C)c1ccc(S(=O)(=O)Nc2nnc(C(C)C)s2)cc1` (racemic) [Example 43, 2-Ethoxy-N-{2-[4-(5-isopropyl-[1,3,4]thiadiazol-2-ylsulfamoyl)-phenyl]-propyl}-4-trifluoromethyl-benzamide] showed an EC50 of 90 nM. The EC50 values of the last two molecules are within 1.5-fold of each other.

`CCOc1cc(C(F)(F)F)ccc1C(=O)NCC(CC)c1ccc(S(=O)(=O)Nc2nnc(C(C)C)s2)cc1` (single isomer, unassigned) [Example 44a] displayed an EC50 of 30 nM. The value for `Cc1cc(Br)c(C(=O)NCCc2ccc(S(=O)(=O)Nc3nnc(C(C)C)s3)cc2)s1` [Example 47, 3-Bromo-5-methyl-thiophene-2-carboxylic acid {2-[4-(5-isopropyl-[1,3,4]thiadiazol-2-ylsulfamoyl)-phenyl]-ethyl}-amide] was 1870 nM; that for `CC(C)(C)c1nnc(NS(=O)(=O)c2ccc(CCNC(=O)c3cc(Cl)ccc3Cl)cc2)s1` [Example 35, N-{2-[4-(5-tert-Butyl-[1,3,4]thiadiazol-2-ylsulfamoyl)-phenyl]-ethyl}-2,5-dichloro-benzamide] was 270 nM. The value for `COc1cc(C(F)(F)F)ccc1C(=O)NCCc1ccc(S(=O)(=O)Nc2nnc(C(C)C)s2)cc1` [Example 1, N-{2-[4-(5-Isopropyl-[1,3,4]thiadiazol-2-ylsulfamoyl)-phenyl]-ethyl}-2-methoxy-4-trifluoromethyl-benzamide] was 380 nM; that for `CCOc1cc(C(F)(F)F)ccc1C(=O)NCC(CC)c1ccc(S(=O)(=O)Nc2nnc(C(C)C)s2)cc1` (single isomer, unassigned) [Example 44b] was 10 nM.
